Patent EP0519427A2, “N-substituted-3-iodopropiolamide, production and use thereof” (priority 1991, dated 1992)

What was measured:
[1] = test system: wood rot fungi; assay: Preserving activity for wood preservatives, overall statement for both fungi; format: cell-based, Tyromyces palustris, Coriolus versicolor; details: summary of Table 2
Method: This test was conducted according to Specification No.1 of Japan Wood Preserving Association, enacted in 1979, amended in 1989 and titled "Test methods of preserving activity for wood preservatives used in the coating, spraying and dipping treatment".
• ① Tyromyces palustris (Ber. et Curt.) Murr., FFPRI 0507 --"Ouzuratake" • ② Coriolus versicolor(L. ex Fr.) Quélet, FFPRI 1030 --"Kawaratake"
These two fungi are classified as wood rot fungi.
Culture media comprised culture jars (cylindrical jars of bottom diameter 8-9 cm, opening diameter 6-7 cm and height 15-18 cm), in which quartz sand of 250 g (the size of which corresponds to 20-30 mesh) was put first, and then the solution of 70 ml containing 2.0 % malt extracts and 1.0 % peptone was introduced, over which chips of the beech or other broadleaf tree were spread at about 2 mm thickness, and then sterilized at 120 °C for 30 minutes in the wet heated sterilizer.
Fungi were cultured at 26 ± 2 °C with shaking using the culture solution of 2.0 % malt extracts and 1.0 % peptone. After sufficient breeding was obtained, the fungi solution of about 3 ml was spread all over the culture medium, and then the fungi were cultured at 26 ± 2 °C with the relative humidity of over 70 %. After 10-15 days when the fungi layer sufficiently covered the culture medium, the fungi were served for the tests.
Wood specimens were the sapwood of intact cedar and beech, the dimension of which was 5 mm thick, 20 mm wide and 40 mm long. The grain face was of 20 mm width and 40 mm length. The side faces were treated with cold-setting epoxy resin.
The antimicrobial operation was performed with specifying types of fungi for corresponding type of trees. The combinations were as follows: Cedar----Tyromyces palustris ("Ouzuratake") Beech----Coriolus versicolor ("Kawaratake")
The test specimens were of two types, treated and untreated specimens, respectively.
The treated specimens referred to the wood specimens coated by brushing, spraying or dipping with wood preservatives. The amount of applied preservatives was 110 ± 10 g/m².
The amount of applied preservatives for each test specimen was calculated by the following equation:
The amount of applied preservatives (g/m²)=(W₁-W₂)/A wherein W₁ : weight of the test specimen after absorption(g), W₂ : weight of the test specimen before absorption(g) and A: surface area of test specimen except both butt surfaces (m²)
2-7-1 The test specimens prepared in the previous section were dried at 60 ± 2 °C with a recirculating dryer for 48 hours, and were allowed to stand in a desiccator for about 30 minutes, and then the weight (W₃) was measured to an accuracy of 0.01 g.
2-7-2 Three of each treated and untreated specimens were assembled in the Teflon casing. After sterilizing, the two assemblies were put on their 40 × 5 mm face on the fungi layer in the separate jar. They were kept at 26 ± 2 °C under the relative humidity of over 70 % for eight weeks.
2-7-3 After the eight weeks had elapsed, the test specimens were taken out, and mycelia and other attachments of them were removed neatly. After air-drying for 24 hours, the test specimens were dried at 60 ± 2 °C in a recirculating dryer for 48 hours, and were allowed to stand in a desiccator for about 30 minutes, and then the weight (W₄) was measured to an accuracy of 0.01 g.
The test results were presented by the ratio of average weight loss of test specimens due to antimicrobial operation. The standard deviation and coefficient of variation were also determined. The ratio of weight loss for each test specimen was calculated by the following equation, and its average was also determined: The ratio of weight loss(%) = (W₃ - W₄) / W₃ × 100 [formula] . Lower value of the ratio of weight loss corresponds to higher wood preserving activity. […]

[2] = test system: Aspergillus niger IFO-4407; assay: Antibacterial and antifungal activity, paper disc method; format: cell-based; details: IFO4407, paper disc d=8 mm dipped in 1,000 µg/ml solution, SDA medium, read-out: diameter of the growth inhibition circle, Asp.(IFO-4407)
Method: (§1) Antibacterial and antifungal activity tests for various bacteria and fungi were conducted. The tests were carried out by the conventional paper disc method. That is, a paper disc (d=8 mm) was dipped in aqueous or methanol solution of the compound of the present invention (concentration : 1,000 µg/ml), then dried and used.
(§2) As bacteria to be tested, • ① Staphylococcus aureus IFO-12732 [hereinafter abbreviated to Sta.] • ② Bacillus subtilis IFO-13719 [Bac.] • ③ Escherichia coli IFO-3301 [Esc.] were used. As yeast to be tested, • ④ Saccharomyces cerevisiae IFO-0210 [Sac.] • ⑤ Candida albicans IFO-0583 [Can.] were used. As fungi to be tested, • ⑥ Aspergillus niger IFO-4407 [Asp.] • ⑦ Penicillium citrinum IFO-7784 [Pen.] • ⑧ Tyromyces palustris IFO-30339 [Tyr.] • ⑨ Coriolus versicolor IFO-30340 [Cor.] were used. Among the above fungi, Tyr. and Cor. are wood rot fungi.
(§3) As the test media, agar media shown below were used. That is, TSA (Trypticase Soy Agar) medium was used for Sta., Bac. and Esc.; YNB (Yeast Nitrogen Base) agar medium was used for Sac. and Can.; SDA (Sabouraud Dextrose Agar) medium was used for Asp. and Pen.; and PDA (Potato Dextrose Agar) medium was used for Try. and Cor.
(§4) The determination of antibacterial and antifungal effectiveness was carried out by measuring the diameter of the growth inhibition circle generated on the circumference of the paper disc. The indication of effectiveness is given as follows: -: no growth inhibition circle was observed. +: diameter of the growth inhibition circle was 9 - 20 mm ++: diameter of the growth inhibition circle was 21 - 40 mm +++: diameter of the growth inhibition circle was 41 mm or more

[3] = test system: Saccharomyces cerevisiae IFO-0210; assay: as above; format: cell-based; details: IFO0210, paper disc d=8 mm dipped in 1,000 µg/ml solution, YNB agar medium, read-out: diameter of the growth inhibition circle, Sac.(IFO-0210)
Method: as §1, §2, §3, §4

[4] = test system: Bacillus subtilis IFO-13719; assay: as above; format: cell-based; details: paper disc d=8 mm dipped in 1,000 µg/ml solution, TSA medium; for zone of inhibition at 1000 µg/mL: Bacillus subtilis, IFO13719, read-out: diameter of the growth inhibition circle, Bac.(IFO-13719)
Method: as §1, §2, §3, §4

[5] = test system: Penicillium citrinum IFO-7784; assay: as above; format: cell-based; details: IFO7784, paper disc d=8 mm dipped in 1,000 µg/ml solution, SDA medium, read-out: diameter of the growth inhibition circle, Pen.(IFO-7784)
Method: as §1, §2, §3, §4

[6] = test system: Escherichia coli IFO-3301; assay: as above; format: cell-based; details: paper disc d=8 mm dipped in 1,000 µg/ml solution, TSA medium; for zone of inhibition at 1000 µg/mL: Escherichia coli, IFO3301, read-out: diameter of the growth inhibition circle, Esc.(IFO-3301)
Method: as §1, §2, §3, §4

[7] = test system: Tyromyces palustris IFO-30339; assay: as above; format: cell-based; details: paper disc d=8 mm dipped in 1,000 µg/ml solution; PDA medium; read-out: diameter of the growth inhibition circle, Tyr.(IFO-30339)
Method: as §1, §2, §3, §4

For `CC(C)(C)NC(=O)C#CI` [Example 1, N-(tert-Butyl)-3-iodopropiolamide], the “wood preserving activity (statement in words)” value (“wood preserving activity” for short) [1] was “excellent wood preserving activity”, the zone of inhibition at 1000 µg/mL [2] was 21 to 40 mm and the zone of inhibition at 1000 µg/mL [3] was 21 to 40 mm. The zone of inhibition at 1000 µg/mL [4] was 9 to 20 mm, the zone of inhibition at 1000 µg/mL [5] was greater than 41 mm and the zone of inhibition at 1000 µg/mL [6] was 9 to 20 mm. It also gave a zone of inhibition at 1000 µg/mL [7] greater than 41 mm.
For `CCCCCCCCCCNC(=O)C#CI` [Example 2, N-(n-Decyl)-3-iodopropiolamide], the “wood preserving activity” value [1] was “excellent wood preserving activity”, the zone of inhibition at 1000 µg/mL [2] was 9 to 20 mm and the zone of inhibition at 1000 µg/mL [3] was 9 to 20 mm. For the same compound, the zone of inhibition at 1000 µg/mL [4] was 9 to 20 mm, the zone of inhibition at 1000 µg/mL [5] was 9 to 20 mm and the “diameter of the growth inhibition circle, Esc.(IFO-3301)” value [6] was “-”. The zone of inhibition at 1000 µg/mL [7] was 9 to 20 mm.
`CCCCNC(=O)C#CI` [Example 4, N-(n-Butyl)-3-iodopropiolamide] was tested, and the “wood preserving activity” value [1] was “excellent wood preserving activity”, the zone of inhibition at 1000 µg/mL [2] was 21 to 40 mm and the zone of inhibition at 1000 µg/mL [3] was 21 to 40 mm. For the same compound, the zone of inhibition at 1000 µg/mL [4] was 9 to 20 mm, the zone of inhibition at 1000 µg/mL [5] was greater than 41 mm and the zone of inhibition at 1000 µg/mL [6] was 9 to 20 mm. It also gave a zone of inhibition at 1000 µg/mL [7] greater than 41 mm.
In the case of `CCC(C)NC(=O)C#CI` (stereo not shown) [Example 5, N-(sec-Butyl)-3-iodopropiolamide], the “wood preserving activity” value [1] is reported as “excellent wood preserving activity”, the zone of inhibition at 1000 µg/mL [2] is reported as 21 to 40 mm and the zone of inhibition at 1000 µg/mL [3] is reported as 21 to 40 mm. The zone of inhibition at 1000 µg/mL [4] was 9 to 20 mm, the zone of inhibition at 1000 µg/mL [5] was greater than 41 mm and the zone of inhibition at 1000 µg/mL [6] was 9 to 20 mm. For the same compound, the zone of inhibition at 1000 µg/mL [7] was greater than 41 mm.
With `CC(C)CNC(=O)C#CI` [Example 6, N-Isobutyl-3-iodopropiolamide] the “wood preserving activity” value [1] was “excellent wood preserving activity”, the zone of inhibition at 1000 µg/mL [2] was 21 to 40 mm and the zone of inhibition at 1000 µg/mL [3] was 21 to 40 mm. The zone of inhibition at 1000 µg/mL [4] was 21 to 40 mm, the zone of inhibition at 1000 µg/mL [5] was 21 to 40 mm and the “diameter of the growth inhibition circle, Esc.(IFO-3301)” value [6] was “-”. For the same compound, the zone of inhibition at 1000 µg/mL [7] was greater than 41 mm.
With `CCCCCNC(=O)C#CI` [Example 7, N-(n-Pentyl)-3-iodopropiolamide] the “wood preserving activity” value [1] was “excellent wood preserving activity”, the zone of inhibition at 1000 µg/mL [2] was 21 to 40 mm and the zone of inhibition at 1000 µg/mL [3] was 21 to 40 mm. It also gave a zone of inhibition at 1000 µg/mL [4] of 9 to 20 mm, a zone of inhibition at 1000 µg/mL [5] greater than 41 mm and a zone of inhibition at 1000 µg/mL [6] of 9 to 20 mm. For the same compound, the zone of inhibition at 1000 µg/mL [7] was greater than 41 mm.
For `CCCCCCNC(=O)C#CI` [Example 8, N-(n-Hexyl)-3-iodopropiolamide], the “wood preserving activity” value [1] was “excellent wood preserving activity”, the zone of inhibition at 1000 µg/mL [2] was 21 to 40 mm and the zone of inhibition at 1000 µg/mL [3] was 21 to 40 mm. It also gave a zone of inhibition at 1000 µg/mL [4] of 9 to 20 mm, a zone of inhibition at 1000 µg/mL [5] greater than 41 mm and a zone of inhibition at 1000 µg/mL [6] of 9 to 20 mm. It also gave a zone of inhibition at 1000 µg/mL [7] greater than 41 mm.
`CCCCCCCNC(=O)C#CI` [Example 9, N-(n-Heptyl)-3-iodopropiolamide] was tested, and the zone of inhibition at 1000 µg/mL [2] was 21 to 40 mm, the zone of inhibition at 1000 µg/mL [3] was 21 to 40 mm and the zone of inhibition at 1000 µg/mL [4] was 9 to 20 mm. The zone of inhibition at 1000 µg/mL [5] was greater than 41 mm, the “diameter of the growth inhibition circle, Esc.(IFO-3301)” value [6] was “-” and the zone of inhibition at 1000 µg/mL [7] was greater than 41 mm.
In the case of `CCCCCCCCNC(=O)C#CI` [Example 10, N-(n-Octyl)-3-iodopropiolamide], the zone of inhibition at 1000 µg/mL [2] is reported as 9 to 20 mm, the zone of inhibition at 1000 µg/mL [3] is reported as 21 to 40 mm and the “diameter of the growth inhibition circle, Bac.(IFO-13719)” value [4] is reported as “-”. The zone of inhibition at 1000 µg/mL [5] was 21 to 40 mm, the “diameter of the growth inhibition circle, Esc.(IFO-3301)” value [6] was “-” and the zone of inhibition at 1000 µg/mL [7] was 21 to 40 mm.
With `CCCCCCCCCNC(=O)C#CI` [Example 11, N-(n-Nonyl)-3-iodopropiolamide] the zone of inhibition at 1000 µg/mL [2] was 9 to 20 mm, the zone of inhibition at 1000 µg/mL [3] was 9 to 20 mm and the “diameter of the growth inhibition circle, Bac.(IFO-13719)” value [4] was “-”. For the same compound, the zone of inhibition at 1000 µg/mL [5] was 21 to 40 mm, the “diameter of the growth inhibition circle, Esc.(IFO-3301)” value [6] was “-” and the zone of inhibition at 1000 µg/mL [7] was 21 to 40 mm.
